{"source": "patent US7012060B1", "about": "“TNF receptor and steroid hormone in a combined therapy” (priority 1995, dated 2006)", "system": "septic shock induced by LPS + D-Galactosamine, in mice", "assay": "LPS+D-Galactosamine-induced septic shock model", "format": "in vivo, SPF female BALB/c inbred mice", "method": "The experiments were carried out in vivo on mice. The septic shock was induced by an i.p. administration of a mixture of LPS (0.1 μg/mouse) and D-Galactosamine (18 mg/mouse).\nThe treatment schedule for r-hTBP-1 based on repeated administrations (the total dose was divided into 4 administrations given at time 0 and […] and 24 hours after), was adopted. CHO r-hTBP-1 was tested, alone or in combination with DHEA, at dose levels of 62.5 and 125 μg/mouse (total dose).\nDHEA was tested both in a single administration injected i.p. one hour before and contemporaneously to the septic shock-inducing agent at doses encompassed between 100 and 2.000 μg/mouse and in repeated treatment with the total dose (250 μg/mouse) divided into 4 injections given within 24 hours.\nThe above treatment schedules of DHEA (doses from 250 to 1,500 μl g/mouse) were followed also in combination with r-hTBP-1 which was tested at the total dose varying from 62.5 to 125 μg/mouse (divided into 4 administrations).\nSPF female BALB/c inbred mice, 6–8 weeks (about 18–20 g b.w.), from Charles River were used throughout the whole study after an acclimatisation period of at least 7 days.\nUnless otherwise specified, in all the experiments the mice were randomly divided into groups of 10 animals each.\nBoth substances were dissolved in saline. The mixture of LPS (0.1 μg/mouse) and D-Galactosamine (18 mg/mouse) was prepared by mixing equal volumes of these substances. The mixture was subsequently injected to animals by the i.p. route. This dose was selected under precious experiments as that inducing around 80% mortality calculated as the number of dead vs. total number of mice for each croup. The lethality was monitored after 24, 48, 72 and 96 hours and at day 7 post-treatment.\nThe drug was diluted in saline and injected by repeated administrations, i.e. i.v. immediately before the inoculum of LPS plus D-Galactosamine and s.c. 3, 6 and 24 hours later.\nThe effects of DHEA, alone or in combination with r-hTBP-1, were assayed after single i.p. administrations at different times in respect to LPS+D-Galactosamine injection; in particular, it was administered 1 hour before and contemporaneously to the septic shock-inducing agent.\nA repeated treatment schedule was also investigated in which DHEA was administered at time 0 (septic shock induction) and 3, 6 and 24 hours later. DHEA was initially vehicled in a mixture of 2.5% alcohol and 10% rabbit serum in saline. To improve the solubility and standardise the preparation, the steroid was successively dispersed in a mixture of 2.5% alcohol and 10% phospholipid emulsion in saline.\nThe primary end point was the survival rate at 48 hours after induction of septic shock. The comparison of the effects of each treatment group vs. controls and among treatment groups was effected by Fisher's exact test, one-tailed. The same comparison was also performed at the other time points. The results in each treatment group were expressed as percent survival.\nIn all the experiments, percent survival values were calculated using the survival Tables for the follow up studies (Armitage P. Cap. XIV. Tavole di sopravvivenza in Statistica Medica, Feltrinelli, Milano). The χ^2-test was applied to each observation time by comparing the DHEA+r-hTBP-1 groups to the other groups.", "note": "Marks after values point to notes of the source that are not given here."}
{"smiles": "C[C@]12CC[C@H](O)CC1=CC[C@@H]1[C@@H]2CC[C@]2(C)C(=O)CC[C@@H]12", "note": "[DHEA, Dehydroepiandrosterone]", "values": [{"measurement": "protection", "setting": "DHEA 1.000 μg contemporaneously with LPS+D-Gal vs same dose 1 hour before", "result": "higher protection"}, {"measurement": "survival rate", "setting": "DHEA 1.500 μg/mouse alone, 1 hour before", "result": 40, "unit": "%"}, {"measurement": "protective effects", "setting": "DHEA 2.000 μg/mouse, 1 hour before LPS+D-Galactosamine, all time points", "result": "complete protection"}, {"measurement": "% cumulative survival", "setting": "DHEA 100 μg/mouse i.p. 1 hour before LPS + D-Gal, saline 10% rabbit serum, 24 hrs, 1st exp", "result": 20, "unit": "%"}, {"measurement": "% cumulative survival", "setting": "DHEA 100 μg/mouse i.p. 1 hour before LPS + D-Gal, saline 10% rabbit serum, 48 hrs, 1st exp", "result": 20, "unit": "%"}, {"measurement": "% cumulative survival", "setting": "DHEA 100 μg/mouse i.p. 1 hour before LPS + D-Gal, saline 10% rabbit serum, 72 hrs, 1st exp", "result": 20, "unit": "%"}, {"measurement": "% cumulative survival", "setting": "DHEA 100 μg/mouse i.p. 1 hour before LPS + D-Gal, saline 10% rabbit serum, 96 hrs, 1st exp", "result": 20, "unit": "%"}, {"measurement": "protection (survival)", "setting": "DHEA 250 μg/mouse alone at time 0, rabbit serum vehicle", "result": 30, "unit": "%"}, {"measurement": "survival rate", "setting": "DHEA 250 μg/mouse divided into 4 inocula at 0, 3, 6 and 24 hours (group E), 48 hours", "result": 40, "unit": "%"}, {"measurement": "% cumulative survival", "setting": "DHEA 250 μg/mouse i.p. at time 0, saline 10% rabbit serum, 24 hrs, 2nd exp.", "result": 20, "unit": "%"}, {"measurement": "% cumulative survival", "setting": "DHEA 250 μg/mouse i.p. at time 0, saline 10% rabbit serum, 48 hrs, 2nd exp.", "result": 20, "unit": "%"}, {"measurement": "% cumulative survival", "setting": "DHEA 250 μg/mouse i.p. at time 0, saline 10% rabbit serum, 72 hrs, 2nd exp.", "result": 20, "unit": "%"}, {"measurement": "% cumulative survival", "setting": "DHEA 250 μg/mouse i.p. at time 0, saline 10% rabbit serum, 96 hrs, 2nd exp.", "result": 20, "unit": "%"}, {"measurement": "survival rate", "setting": "DHEA 250 μg/mouse single injection (group D), 48 hours", "result": 30, "unit": "%"}, {"measurement": "% cumulative survival", "setting": "DHEA 500 μg/mouse i.p. 1 hour before LPS + D-Gal, saline 10% rabbit serum, 24 hrs, 1st exp", "result": 10, "unit": "%"}, {"measurement": "% cumulative survival", "setting": "DHEA 500 μg/mouse i.p. 1 hour before LPS + D-Gal, saline 10% rabbit serum, 48 hrs, 1st exp", "result": 10, "unit": "%"}, {"measurement": "% cumulative survival", "setting": "DHEA 500 μg/mouse i.p. 1 hour before LPS + D-Gal, saline 10% rabbit serum, 72 hrs, 1st exp", "result": 10, "unit": "%"}, {"measurement": "% cumulative survival", "setting": "DHEA 500 μg/mouse i.p. 1 hour before LPS + D-Gal, saline 10% rabbit serum, 96 hrs, 1st exp", "result": 10, "unit": "%"}, {"measurement": "% cumulative survival", "setting": "DHEA 500 μg/mouse i.p. at time 0, saline 10% rabbit serum, 24 hrs, 1st exp.", "result": 50, "unit": "%"}, {"measurement": "% cumulative survival", "setting": "DHEA 500 μg/mouse i.p. at time 0, saline 10% rabbit serum, 24 hrs, 2nd exp.", "result": 30, "unit": "%"}, {"measurement": "% cumulative survival", "setting": "DHEA 500 μg/mouse i.p. at time 0, saline 10% rabbit serum, 48 hrs, 1st exp.", "result": 40, "unit": "%"}, {"measurement": "% cumulative survival", "setting": "DHEA 500 μg/mouse i.p. at time 0, saline 10% rabbit serum, 48 hrs, 2nd exp.", "result": 30, "unit": "%"}, {"measurement": "% cumulative survival", "setting": "DHEA 500 μg/mouse i.p. at time 0, saline 10% rabbit serum, 72 hrs, 1st exp.", "result": 30, "unit": "%"}, {"measurement": "% cumulative survival", "setting": "DHEA 500 μg/mouse i.p. at time 0, saline 10% rabbit serum, 72 hrs, 2nd exp.", "result": 30, "unit": "%"}, {"measurement": "% cumulative survival", "setting": "DHEA 500 μg/mouse i.p. at time 0, saline 10% rabbit serum, 96 hrs, 1st exp.", "result": 30, "unit": "%"}, {"measurement": "% cumulative survival", "setting": "DHEA 500 μg/mouse i.p. at time 0, saline 10% rabbit serum, 96 hrs, 2nd exp.", "result": 30, "unit": "%"}, {"measurement": "% cumulative survival", "setting": "DHEA 750 μg/mouse i.p. at time 0, saline 10% rabbit serum, 24 hrs, 1st exp.", "result": 40, "unit": "%"}, {"measurement": "% cumulative survival", "setting": "DHEA 750 μg/mouse i.p. at time 0, saline 10% rabbit serum, 24 hrs, 2nd exp.", "result": 50, "unit": "%"}, {"measurement": "% cumulative survival", "setting": "DHEA 750 μg/mouse i.p. at time 0, saline 10% rabbit serum, 48 hrs, 1st exp.", "result": 40, "unit": "%"}, {"measurement": "% cumulative survival", "setting": "DHEA 750 μg/mouse i.p. at time 0, saline 10% rabbit serum, 48 hrs, 2nd exp.", "result": 50, "unit": "%"}, {"measurement": "% cumulative survival", "setting": "DHEA 750 μg/mouse i.p. at time 0, saline 10% rabbit serum, 72 hrs, 1st exp.", "result": 40, "unit": "%"}, {"measurement": "% cumulative survival", "setting": "DHEA 750 μg/mouse i.p. at time 0, saline 10% rabbit serum, 72 hrs, 2nd exp.", "result": 50, "unit": "%"}, {"measurement": "% cumulative survival", "setting": "DHEA 750 μg/mouse i.p. at time 0, saline 10% rabbit serum, 96 hrs, 1st exp.", "result": 40, "unit": "%"}, {"measurement": "% cumulative survival", "setting": "DHEA 750 μg/mouse i.p. at time 0, saline 10% rabbit serum, 96 hrs, 2nd exp.", "result": 50, "unit": "%"}, {"measurement": "% cumulative survival", "setting": "DHEA 1000 μg/mouse i.p. 1 hour before LPS + D-Gal, saline 10% rabbit serum, 24 hrs, 2nd exp", "result": 20, "unit": "%"}, {"measurement": "% cumulative survival", "setting": "DHEA 1000 μg/mouse i.p. 1 hour before LPS + D-Gal, saline 10% rabbit serum, 48 hrs, 2nd exp", "result": 20, "unit": "%"}, {"measurement": "% cumulative survival", "setting": "DHEA 1000 μg/mouse i.p. 1 hour before LPS + D-Gal, saline 10% rabbit serum, 72 hrs, 2nd exp", "result": 10, "unit": "%"}, {"measurement": "% cumulative survival", "setting": "DHEA 1000 μg/mouse i.p. 1 hour before LPS + D-Gal, saline 10% rabbit serum, 96 hrs, 2nd exp", "result": 0, "unit": "%"}, {"measurement": "% cumulative survival", "setting": "DHEA 1000 μg/mouse i.p. at time 0, saline 10% rabbit serum, 24 hrs, 1st exp.", "result": "80^a %"}, {"measurement": "% cumulative survival", "setting": "DHEA 1000 μg/mouse i.p. at time 0, saline 10% rabbit serum, 48 hrs, 1st exp.", "result": 60, "unit": "%"}, {"measurement": "% cumulative survival", "setting": "DHEA 1000 μg/mouse i.p. at time 0, saline 10% rabbit serum, 72 hrs, 1st exp.", "result": 60, "unit": "%"}, {"measurement": "% cumulative survival", "setting": "DHEA 1000 μg/mouse i.p. at time 0, saline 10% rabbit serum, 96 hrs, 1st exp.", "result": 60, "unit": "%"}, {"measurement": "% cumulative survival", "setting": "DHEA 1500 μg/mouse i.p. 1 hour before LPS + D-Gal, saline 10% rabbit serum, 24 hrs, 2nd exp", "result": "70^a %"}, {"measurement": "% cumulative survival", "setting": "DHEA 1500 μg/mouse i.p. 1 hour before LPS + D-Gal, saline 10% rabbit serum, 48 hrs, 2nd exp", "result": "70^a %"}]}
